Laboratory results: ChEMBL document CHEMBL1127184, “Preparation of the enantiomers of the analgesic E-3710” (1993)

What was measured:
Assay type in all cases: functional
Mus musculus [1] = experiment: Analgesic activity by writhing test in mice after peroral administration; conditions: po
Mus musculus [2] = experiment: Analgesic activity by writhing test in mice after intraveneous administration; conditions: iv
Mus musculus [3] = experiment: Analgesic activity by writhing test in mice after subcutaneous administration; conditions: sc

| Structure (SMILES) | ED50 (Mus musculus [1]) [mg/kg] | ED50 (Mus musculus [2]) [mg/kg] | ED50 (Mus musculus [3]) [mg/kg] |
| --- | --- | --- | --- |
| CN(C)CCO[C@@H](c1ccccc1)c1ccnn1C | 67 | 28 | 127 |
| CN(C)CCO[C@H](c1ccccc1)c1ccnn1C | 37 | 13 | 21 |
| CN(C)CCOC(c1ccccc1)c1ccnn1C (racemic) [CIZOLIRTINE] | 56 | 16 | 70 |
| O=C([O-])Cc1ccccc1Nc1c(Cl)cccc1Cl.[Na+] [DICLOFENAC SODIUM] | 87 |  |  |
